# In patent US20230127839A1, “COMPOUNDS AND COMPOSITIONS FOR TREATING CONDITIONS ASSOCIATED WITH STING ACTIVITY” (IFM Due, Inc., priority 2019, published 2023):
# Molecular target: T1, hSTING (Homo sapiens, UniProt Q86WV6, G230A/H232R/R293Q/R71H)
# T1 construct: host or cells: THP1-Dual KO-IFNAR2 cells
# Experiment: STING reporter assay (luciferase) in THP1-Dual KO-IFNAR2 cells stimulated with 2'3'cGAMP
# Format: cell-based
# Conditions: 2'3'cGAMP 15 μM, 24 h, luciferase reporter activity
# Protocol: STING pathway activation by the compounds described herein is measured using THP1-Dual™ cells (KO-IFNAR2).
# THP1-Dual™ KO-IFNAR2 Cells (obtained from invivogen) are maintained in RPMI, 10% FCS, 5 ml P/S, 2 mM L-glut, 10 mM Hepes, and 1 mM sodium pyruvate.
# Compounds are spotted in empty 384 well tissue culture plates (Greiner 781182) by Echo for a final concentration of 0.0017-100 μM. Cells are plated into the TC plates at 40 μL per well, 2×10E6 cells/mL. For activation with STING ligand, 2′3′cGAMP (MW 718.38, obtained from Invivogen), is prepared in Optimem media.
# The following solutions are prepared for each 1×384 plate: • Solution A: 2 mL Optimem with one of the following stimuli: • 60 uL of 10 mM 2′3′cGAMP->150 μM stock • Solution B: 2 mL Optimem with 60 μL Lipofectamine 2000->Incubate 5 min at RT
# 2 mL of solution A and 2 ml Solution B is mixed and incubated for 20 min at room temperature (RT). 20 uL of transfection solution (A+B) is added on top of the plated cells, with a final 2′3′cGAMP concentration of 15 μM. The plates are then centrifuged immediately at 340 g for 1 minute, after which they are incubated at 37° C., 5% CO2, >98% humidity for 24 h. Luciferase reporter activity is then measured. EC50 values are calculated by using standard methods known in the art.
# Luciferase reporter assay: 10 μL of supernatant from the assay is transferred to white 384-plate with flat bottom and squared wells. One pouch of QUANTI-Luc™ Plus us dissolved in 25 mL of water. 100 μL of QLC Stabilizer per 25 mL of QUANTI-Luc™ Plus solution is added. 50 μL of QUANTI-Luc™ Plus/QLC solution per well is then added. Luminescence is measured on a Platereader (e.g., Spectramax I3X (Molecular Devices GF3637001)).
# Luciferase reporter activity is then measured. EC50 values are calculated by using standard methods known in the art.
# T1 sequence (Q86WV6 whole entry R71H/G230A/H232R/R293Q): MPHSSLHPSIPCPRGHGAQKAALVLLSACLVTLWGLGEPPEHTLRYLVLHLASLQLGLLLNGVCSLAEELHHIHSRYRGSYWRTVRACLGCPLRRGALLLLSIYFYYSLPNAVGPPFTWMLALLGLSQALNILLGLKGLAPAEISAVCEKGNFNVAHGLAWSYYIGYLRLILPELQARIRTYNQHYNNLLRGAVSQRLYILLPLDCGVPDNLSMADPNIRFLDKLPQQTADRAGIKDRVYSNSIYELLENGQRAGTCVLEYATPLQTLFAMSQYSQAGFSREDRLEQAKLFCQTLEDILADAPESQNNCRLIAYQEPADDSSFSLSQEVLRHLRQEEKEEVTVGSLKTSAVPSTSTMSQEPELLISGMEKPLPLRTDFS
row,Structure (SMILES),EC50 [µM]
1,"CSc1ccc2[nH]cc(NC(=O)Nc3cnc(N4CCC(F)(F)CC4)c(Cl)c3)c2c1 [Compound 183, 1-(5-chloro-6-(4,4-difluoropiperidin-1-yl)pyridin-3-yl)-3-(5-(methylthio)-1H-indol-3-yl)urea]",0.04 to 0.2
2,"Cc1cc(NC(=O)Nc2c[nH]c3ccc(Br)cc23)cnc1N1CCC(F)(F)CC1 [Compound 184, 1-(5-bromo-1H-indol-3-yl)-3-(6-(4,4-difluoropiperidin-1-yl)-5-methylpyridin-3-yl)urea]",0.04 to 0.2
3,"COCCO[C@@H]1CCN(c2ncc(NC(=O)Nc3c[nH]c4cc(F)c(F)cc34)cc2Cl)C1 [Compound 185, (R)-1-(5-chloro-6-(3-(2-methoxyethoxy)pyrrolidin-1-yl)pyridin-3-yl)-3-(5,6-difluoro-1H-indol-3-yl)urea]",0.2 to 1
4,"O=C(Nc1cnc(N2CC3(CCOC3)C2)c(Cl)c1)Nc1c[nH]c2cc(F)c(F)cc12 [Compound 186, 1-(5-chloro-6-(6-oxa-2-azaspiro[3.4]octan-2-yl)pyridin-3-yl)-3-(5,6-difluoro-1H-indol-3-yl)urea]",0.2 to 1
5,"COC1(C)CN(c2ncc(NC(=O)Nc3c[nH]c4cc(F)c(F)cc34)cc2Cl)C1 [Compound 187, 1-(5-chloro-6-(3-methoxy-3-methylazetidin-1-yl)pyridin-3-yl)-3-(5,6-difluoro-1H-indol-3-yl)urea]",0.2 to 1
6,"C[C@H]1CN(c2ncc(NC(=O)Nc3c[nH]c4cc(F)c(F)cc34)cc2Cl)CCO1 [Compound 188, (S)-1-(5-chloro-6-(2-methylmorpholino)pyridin-3-yl)-3-(5,6-difluoro-1H-indol-3-yl)urea]",0.2 to 1
7,"O=C(Nc1cnc(N2CCC(F)(F)CC2)cn1)Nc1c[nH]c2ccc(Cl)cc12 [Compound 189, 1-(5-chloro-1H-indol-3-yl)-3-(5-(4,4-difluoropiperidin-1-yl)pyrazin-2-yl)urea]",0.04 to 0.2
8,"O=C(Nc1ccc(C2CCC(F)(F)CC2)nc1)Nc1c[nH]c2ccccc12 [Compound 190, 1-(6-(4,4-difluorocyclohexyl)pyridin-3-yl)-3-(1H-indol-3-yl)urea]",0.2 to 1
9,"O=C(Nc1cnc(C2CCC(F)(F)CC2)c(Cl)c1)Nc1c[nH]c2ccc(O)cc12 [Compound 191, 1-(5-chloro-6-(4,4-difluorocyclohexyl)pyridin-3-yl)-3-(5-hydroxy-1H-indol-3-yl)urea]",0.2 to 1
10,"O=C(Nc1ccc(C2CCC(F)(F)CC2)nc1)Nc1c[nH]c2ccc(I)cc12 [Compound 192, 1-(6-(4,4-difluorocyclohexyl)pyridin-3-yl)-3-(5-iodo-1H-indol-3-yl)urea]",0.04 to 0.2
11,"O=C(Nc1cnc(N2CCC(F)(F)CC2)c(Cl)c1)Nc1c[nH]c2ccc(F)cc12 [Compound 193, 1-(5-chloro-6-(4,4-difluoropiperidin-1-yl)pyridin-3-yl)-3-(5-fluoro-1H-indol-3-yl)urea]",0.04 to 0.2
12,"O=C(Nc1cnc(N2CCC(F)(F)CC2)cn1)Nc1c[nH]c2cc(F)c(F)cc12 [Compound 194, 1-(5,6-difluoro-1H-indol-3-yl)-3-(5-(4,4-difluoropiperidin-1-yl)pyrazin-2-yl)urea]",0.2 to 1
13,"Cc1cc(NC(=O)Nc2c[nH]c3ccc(F)cc23)cnc1N1CCC(F)(F)CC1 [Compound 195, 1-(6-(4,4-difluoropiperidin-1-yl)-5-methylpyridin-3-yl)-3-(5-fluoro-1H-indol-3-yl)urea]",0.04 to 0.2
14,"O=C(Nc1cnc(N2CCC(F)(F)CC2)c(Cl)c1)Nc1c[nH]c2ccc(Cl)cc12 [Compound 196, 1-(5-chloro-1H-indol-3-yl)-3-(5-chloro-6-(4,4-difluoropiperidin-1-yl)pyridin-3-yl)urea]",0.04 to 0.2
15,"Cc1ccc2[nH]cc(NC(=O)Nc3cnc(N4CCC(F)(F)CC4)c(C)c3)c2c1 [Compound 197, 1-(6-(4,4-difluoropiperidin-1-yl)-5-methylpyridin-3-yl)-3-(5-methyl-1H-indol-3-yl)urea]",0.04 to 0.2
16,"Cc1cc(NC(=O)Nc2c[nH]c3ccccc23)cnc1N1CCC2(CC1)CC2 [Compound 198, 1-(1H-indol-3-yl)-3-(5-methyl-6-(6-azaspiro[2.5]octan-6-yl)pyridin-3-yl)urea]",0.04 to 0.2
17,"O=C(Nc1cnc(N2CCC(F)(F)CC2)c(Cl)c1)Nc1c[nH]c2cc(F)c(F)cc12 [Compound 199, 1-(5-chloro-6-(4,4-difluoropiperidin-1-yl)pyridin-3-yl)-3-(5,6-difluoro-1H-indol-3-yl)urea]",0.04 to 0.2
18,"Cc1cc(NC(=O)Nc2c[nH]c3cc(F)c(F)cc23)cnc1N1CCC(F)(F)CC1 [Compound 200, 1-(5,6-difluoro-1H-indol-3-yl)-3-(6-(4,4-difluoropiperidin-1-yl)-5-methylpyridin-3-yl)urea]",0.04 to 0.2

row,Structure (SMILES),EC50 [µM]
1,"Cc1cc(NC(=O)Nc2c[nH]c3ccccc23)cnc1N1CCC(F)(F)CC1 [Compound 201, 1-(6-(4,4-difluoropiperidin-1-yl)-5-methylpyridin-3-yl)-3-(1H-indol-3-yl)urea]",0.2 to 1
2,"COC1CCN(c2ncc(NC(=O)Nc3c[nH]c4ccccc34)cc2C)CC1 [Compound 202, 1-(1H-indol-3-yl)-3-(6-(4-methoxypiperidin-1-yl)-5-methylpyridin-3-yl)urea]",1 to 5
3,"O=C(Nc1ccc(C2CCC(F)(F)CC2)nc1)Nc1c[nH]c2ccc(Br)cc12 [Compound 203, 1-(5-bromo-1H-indol-3-yl)-3-(6-(4,4-difluorocyclohexyl)pyridin-3-yl)urea]",0.04 to 0.2
4,"O=C(Nc1ccc(N2CCC(F)(F)CC2)nn1)Nc1c[nH]c2ccccc12 [Compound 204, 1-(6-(4,4-difluoropiperidin-1-yl)pyridazin-3-yl)-3-(1H-indol-3-yl)urea]",1 to 5
5,"O=C(Nc1cnc(N2CCC(F)(F)CC2)cn1)Nc1c[nH]c2ccccc12 [Compound 205, 1-(5-(4,4-difluoropiperidin-1-yl)pyrazin-2-yl)-3-(1H-indol-3-yl)urea]",0.2 to 1
6,"O=C(Nc1cnc(N2CCC(F)(F)CC2)c(Cl)c1)Nc1c[nH]c2ccccc12 [Compound 206, 1-(5-chloro-6-(4,4-difluoropiperidin-1-yl)pyridin-3-yl)-3-(1H-indol-3-yl)urea]",0.04 to 0.2
7,"N#Cc1cc(NC(=O)Nc2c[nH]c3ccccc23)ccc1C1CCC(F)(F)CC1 [Compound 207, 1-(3-cyano-4-(4,4-difluorocyclohexyl)phenyl)-3-(1H-indol-3-yl)urea]",0.04 to 0.2
8,"O=C(Nc1cnc(N2CCC(F)(F)CC2)c(Cl)c1)Nc1c[nH]c2ccc(Br)cc12 [Compound 208, 1-(5-bromo-1H-indol-3-yl)-3-(5-chloro-6-(4,4-difluoropiperidin-1-yl)pyridin-3-yl)urea]",1 to 5
9,"O=C(Nc1cnn(C2CCC(F)(F)CC2)c1)Nc1c[nH]c2ccc(Cl)cc12 [Compound 209, 1-(5-chloro-1H-indol-3-yl)-3-(1-(4,4-difluorocyclohexyl)-1H-pyrazol-4-yl)urea]",0.2 to 1
10,"O=C(Nc1cn(C2CCC(F)(F)CC2)cn1)Nc1c[nH]c2ccc(F)cc12 [Compound 210, 1-[1-(4,4-difluorocyclohexyl)imidazol-4-yl]-3-(5-fluoro-1H-indol-3-yl)urea]",1 to 5
11,"O=C(Nc1ccn(C2CCC(F)(F)CC2)n1)Nc1c[nH]c2ccc(F)cc12 [Compound 211, 1-(1-(4,4-difluorocyclohexyl)-1H-pyrazol-3-yl)-3-(5-fluoro-1H-indol-3-yl)urea]",1 to 5
12,"O=C(Nc1cn(C2CCC(F)(F)CC2)cn1)Nc1c[nH]c2ccc(Cl)cc12 [Compound 212, 3-(5-chloro-1H-indol-3-yl)-1-[1-(4,4-difluorocyclohexyl)imidazol-4-yl]urea]",1 to 5
13,"O=C(Nc1ccnc(C2CCN(CC(F)(F)F)CC2)c1)Nc1c[nH]c2cc(F)c(F)cc12 [Compound 213, 1-(5,6-difluoro-1H-indol-3-yl)-3-(2-(1-(2,2,2-trifluoroethyl)piperidin-4-yl)pyridin-4-yl)urea]",1 to 5
14,"O=C(Nc1cnn(C2CCC3(CC2)CC3)c1)Nc1c[nH]c2ccc(Cl)cc12 [Compound 214, 1-(5-chloro-1H-indol-3-yl)-3-(1-(spiro[2.5]octan-6-yl)-1H-pyrazol-4-yl)urea]",0.2 to 1
15,"O=C(Nc1cnn(C2CC(F)(F)C2)c1)Nc1c[nH]c2ccc(Cl)cc12 [Compound 215, 1-(5-chloro-1H-indol-3-yl)-3-(1-(3,3-difluorocyclobutyl)-1H-pyrazol-4-yl)urea]",0.2 to 1
16,"O=C(Nc1cnn(C2CC(F)(F)C2)c1)Nc1c[nH]c2cc(F)c(F)cc12 [Compound 216, 1-(5,6-difluoro-1H-indol-3-yl)-3-(1-(3,3-difluorocyclobutyl)-1H-pyrazol-4-yl)urea]",1 to 5
17,"CC(CC1CCC1)n1cc(NC(=O)Nc2c[nH]c3ccc(Cl)cc23)cn1 (centres unmarked) [Compound 217, 1-(5-chloro-1H-indol-3-yl)-3-(1-(1-cyclobutylpropan-2-yl)-1H-pyrazol-4-yl)urea]",0.2 to 1
